Experimental data from ChEMBL document CHEMBL2375237, “Optimization of allosteric MEK inhibitors. Part 1: Venturing into underexplored SAR territories” (Bioorg Med Chem Lett, 2013).
Active and inactive are the calls of the source. No cut-off for these calls is given here.

What was measured:
[1] = biological target: Dual specificity mitogen-activated protein kinase kinase 1 (Homo sapiens, UniProt Q02750); assay: Inhibition of MEK1 (unknown origin) after 2 hrs by fluorescence assay
A-375 = assay: cells; details: Homo sapiens, A-375, 72 h
Description: Antiproliferative activity against human A375 cells expressing BRAF V600E mutant after 72 hrs by Cell titer-glo assay

[2] = Oral bioavailability in rat at 1 mg/kg; assay type: ADME, organism-based; details: in vivo
[3] = Terminal half life in rat at 0.5 mg/kg, iv and 1 mg/kg, po; assay type: ADME, organism-based; details: in vivo, read-out: beta t1/2 (converted)
[4] = Volume of distribution at steady state in rat at 0.5 mg/kg, iv and 1 mg/kg, po; assay type: ADME, organism-based; details: in vivo, read-out: Vdss
[5] = Blood clearance in rat at 0.5 mg/kg, iv and 1 mg/kg, po; assay type: ADME, organism-based; details: whole blood
A549 [6] = details: Homo sapiens
Description: Antitumor activity against human A549 cells xenografted in nude mouse assessed as tumor growth inhibition at 3 mg/kg, po qd

HCT-116 [7] = assay: Antiproliferative activity against human HCT116 cells expressing KRAS G13D mutant; assay type: functional, cell-based
MIA PaCa-2 = assay: Antiproliferative activity against human MIAPaCa2 cells; assay type: functional, cell-based
LoVo = assay: Antiproliferative activity against human LoVo cells; assay type: functional, cell-based
A549 [8] = assay: Antiproliferative activity against human A549 cells; assay type: functional, cell-based
[9] = Ratio of AUC in mouse brain to AUC in mouse plasma at 5 mg/kg, iv up to 3 hrs; assay type: ADME, organism-based; design: dose 5 mg/kg, route intravenous; details: read-out: Ratio AUC
[10] = Oral bioavailability in rat at 5 mg/kg; assay type: ADME, organism-based; details: in vivo
[11] = Terminal half life in rat at 0.5 mg/kg, iv and 5 mg/kg, po; assay type: ADME, organism-based; details: in vivo, read-out: beta t1/2 (converted)
[12] = Volume of distribution at steady state in rat at 0.5 mg/kg, iv and 5 mg/kg, po; assay type: ADME, organism-based; details: in vivo, read-out: Vdss
[13] = Blood clearance in rat at 0.5 mg/kg, iv and 5 mg/kg, po; assay type: ADME, organism-based; details: whole blood
[14] = Terminal half life in dog; assay type: ADME, organism-based, Canis lupus familiaris; details: in vivo, read-out: beta t1/2 (converted)
[15] = Terminal half life in mouse; assay type: ADME, organism-based; details: in vivo, read-out: beta t1/2 (converted)
HCT-116 [16] = assay: Ratio of AZD6244 IC50 to compound IC50 for human HCT116 cells expressing KRAS G13D mutant; assay type: functional
[17] = Terminal half life in rat at 1 mg/kg, iv and 1 mg/kg, po; assay type: ADME, organism-based; details: in vivo, read-out: beta t1/2 (converted)
[18] = Volume of distribution at steady state in rat at 1 mg/kg, iv and 1 mg/kg, po; assay type: ADME, organism-based; details: in vivo, read-out: Vdss
[19] = Blood clearance in rat at 1 mg/kg, iv and 1 mg/kg, po; assay type: ADME, organism-based; details: whole blood
A549 [20] = details: Homo sapiens; remark: listed apart in the source
Description: Antitumor activity against human A549 cells xenografted in nude mouse assessed as tumor growth inhibition at 1 mg/kg, po administered every other day

A549 [21] = details: Homo sapiens; remark: listed apart in the source
Description: Antitumor activity against human A549 cells xenografted in nude mouse assessed as tumor growth inhibition at 1 mg/kg, po qd

Caco-2 = assay: Efflux ratio of permeability in human Caco2 cells relative to control; assay type: ADME, cell-based
[22] = Oral bioavailability in rat at 0.6 mg/kg; assay type: ADME, organism-based; details: in vivo
[23] = Terminal half life in rat at 0.3 mg/kg, iv and 0.6 mg/kg, po; assay type: ADME, organism-based; details: in vivo, read-out: beta t1/2 (converted)
[24] = Volume of distribution at steady state in rat at 0.3 mg/kg, iv and 0.6 mg/kg, po; assay type: ADME, organism-based; details: in vivo, read-out: Vdss
[25] = Blood clearance in rat at 0.3 mg/kg, iv and 0.6 mg/kg, po; assay type: ADME, organism-based; details: whole blood
[26] = Drug metabolism in hepatocytes (unknown origin) assessed as demethylation of the sulfamide moiety; assay type: ADME, cell-based, Hepatocyte
[27] = Drug metabolism in liver microsomes (unknown origin) assessed as demethylation of the sulfamide moiety; assay type: ADME, Microsome
[28] = Oral bioavailability in rat; assay type: ADME, organism-based; details: in vivo
[29] = Terminal half life in rat at 1 mg/kg, iv; assay type: ADME, organism-based; design: dose 1 mg/kg, route intravenous; details: in vivo, read-out: beta t1/2 (converted)
[30] = Blood clearance in rat at 1 mg/kg, iv; assay type: ADME, organism-based; design: dose 1 mg/kg, route intravenous; details: whole blood

Sequence of Dual specificity mitogen-activated protein kinase kinase 1 (Q02750 whole entry): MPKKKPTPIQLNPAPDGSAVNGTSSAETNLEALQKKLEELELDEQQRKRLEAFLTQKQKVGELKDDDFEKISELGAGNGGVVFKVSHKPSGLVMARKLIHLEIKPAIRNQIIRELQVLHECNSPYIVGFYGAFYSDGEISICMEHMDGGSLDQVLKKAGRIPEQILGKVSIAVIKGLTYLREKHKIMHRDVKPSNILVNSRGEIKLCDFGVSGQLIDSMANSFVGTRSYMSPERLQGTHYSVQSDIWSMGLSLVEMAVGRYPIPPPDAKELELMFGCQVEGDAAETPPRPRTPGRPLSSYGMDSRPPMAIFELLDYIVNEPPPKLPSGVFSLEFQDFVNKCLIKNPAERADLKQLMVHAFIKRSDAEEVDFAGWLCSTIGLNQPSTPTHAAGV

Structure (SMILES) | IC50 [1] [nM] | IC50 (A-375) [nM] | IC50 (HCT-116 [7]) [nM] | other results
NC(=O)c1c(Nc2ccc(I)cc2F)cc(F)cc1Oc1ccc2cn[nH]c2c1 | 54 | 221 |  | 
O=C(NOC[C@H](O)CO)c1ccc(F)c(F)c1Nc1ccc(I)cc1F [MIRDAMETINIB] |  |  |  | bioavailability [2]: 104%; half-life [3]: 5.4 h; Vd [4]: 1.7 L/kg; clearance [5]: 8.33 mL/min/kg; TGI (A549 [6]): Active
NC(=O)c1c(Nc2ccc(I)cc2F)cc(F)cc1OCC[C@H](O)CO |  | 240 |  | 
CC(C)C(=O)Nc1cccc(Oc2cc(F)cc(Nc3ccc(I)cc3F)c2C(N)=O)c1 | 48 | 192 | 8810 | 
CN1CCC[C@H]1COc1cc(F)cc(Nc2ccc(I)cc2F)c1C(N)=O |  | 973 |  | 
NC(=O)c1c(Nc2ccc(I)cc2F)cc(F)cc1OC[C@H](O)CCO | 63 | 350 |  | 
CC(O)(CO)CCOc1cc(F)cc(Nc2ccc(I)cc2F)c1C(N)=O (stereo unspecified) |  | 240 |  | 
COc1cc(F)cc(Nc2ccc(I)cc2F)c1C(N)=O | 74 | 354 |  | 
CCS(=O)(=O)N1CCC[C@H]1COc1cc(F)cc(Nc2ccc(I)cc2F)c1C(N)=O |  | 323 |  | 
NC(=O)c1c(Nc2ccc(I)cc2F)cc(F)cc1Oc1ccccc1 | 99 | 408 |  | 
CN(C)S(=O)(=O)N1CCC[C@H]1COc1cc(F)cc(Nc2ccc(I)cc2F)c1C(N)=O | 1000 | 1120 |  | 
CC(=O)Nc1ccc(Oc2cc(F)cc(Nc3ccc(I)cc3F)c2C(N)=O)cc1 | 539 | 808 |  | 

The next lines start with results.

IC50 [1] [nM] | IC50 (A-375) [nM] | IC50 (HCT-116 [7]) [nM] | Structure (SMILES) | other results
32 | 37 | 3490 | NC(=O)c1c(Nc2ccc(I)cc2F)cc(F)cc1Oc1cccc(CS(N)(=O)=O)c1 | 
21 | 23 | 3800 | CS(=O)(=O)Nc1cccc(Oc2cc(F)cc(Nc3ccc(I)cc3F)c2C(N)=O)c1 | 
15 | < 30 | 287 | CCS(=O)(=O)Nc1cccc(Oc2cc(F)cc(Nc3ccc(I)cc3F)c2C(N)=O)c1 | 
 | 16 | 103 | CNS(=O)(=O)Nc1cccc(Oc2cc(F)cc(Nc3ccc(I)cc3F)c2C(N)=O)c1 | 
26 | 124 | 3030 | NC(=O)c1c(Nc2ccc(I)cc2F)cc(F)cc1OC[C@@H]1CCCN1 | 
13 | 151 | 2070 | NC(=O)c1c(Nc2ccc(I)cc2F)cc(F)cc1OCC[C@@H](O)Cn1cccn1 | 
 | 50 | 2290 | CC(=O)Nc1cccc(Oc2cc(F)cc(Nc3ccc(I)cc3F)c2C(N)=O)c1 | 
 | 31 | 3100 | Cn1cnc2c(F)c(Nc3ccc(Br)cc3Cl)c(C(=O)NOCCO)cc21 [SELUMETINIB] | IC50 (MIA PaCa-2): 142 nM; IC50 (LoVo): 2830 nM; IC50 (A549 [8]): 1750 nM; Kp at 3 h [9]: < 0.02; bioavailability [10]: 14%; half-life [11]: 3.8 h; Vd [12]: 0.2 L/kg; clearance [13]: 1 mL/min/kg
14 | 4 | 180 | NC(=O)c1c(Nc2ccc(I)cc2F)cc(F)cc1Oc1cccc(NS(N)(=O)=O)c1 | half-life [14]: 110 h; half-life [15]: 34 h; IC50 (MIA PaCa-2): 23 nM; IC50 (LoVo): 175 nM; IC50 (A549 [8]): 132 nM; Ratio IC50 (HCT-116 [16]): >=10; Kp at 3 h [9]: < 0.02; bioavailability [2]: 62%; half-life [17]: 32 h; Vd [18]: 2 L/kg; clearance [19]: 0.5 mL/min/kg; TGI (A549 [20]): Active; TGI (A549 [21]): Active
43 | 40 | 2450 | CC(C)(O)C(O)CCOc1cc(F)cc(Nc2ccc(I)cc2F)c1C(N)=O (stereo unspecified) | 
21 | 28 | 412 | NC(=O)c1c(Nc2ccc(I)cc2F)cc(F)cc1Oc1cccc(NS(=O)(=O)N2CCCC2)c1 | 
73 | 172 | 3040 | NC(=O)c1c(Nc2ccc(I)cc2F)cc(F)cc1OC[C@@H]1CCCN1S(N)(=O)=O | 
36 | 35 | 4510 | NC(=O)c1c(Nc2ccc(I)cc2F)cc(F)cc1Oc1ccc2oc(=O)[nH]c2c1 | 
16 | 98 | 1250 | NC(=O)c1c(Nc2ccc(I)cc2F)cc(F)cc1OCC[C@@H](O)Cn1ccnc1 | fold change (FC) (Caco-2): 10; Kp at 3 h [9]: 0.04; bioavailability [22]: 20%; half-life [23]: 8.4 h; Vd [24]: 10.3 L/kg; clearance [25]: 9.67 mL/min/kg
21 | 18 | 155 | CN(C)S(=O)(=O)Nc1cccc(Oc2cc(F)cc(Nc3ccc(I)cc3F)c2C(N)=O)c1 | Drug metabolism [26]: Active; Drug metabolism [27]: Active; bioavailability [28]: 55%; half-life [29]: 2.2 h; clearance [30]: 35 mL/min/kg
 | 148 | 3400 | NC(=O)c1c(Nc2ccc(I)cc2F)cc(F)cc1OCC[C@@H](O)CO | Kp at 3 h [9]: 0.73; bioavailability [2]: 70%; half-life [3]: 2.4 h; Vd [4]: 4.4 L/kg; clearance [5]: 24.8 mL/min/kg
18 | 17 | 459 | CC(C)S(=O)(=O)Nc1cccc(Oc2cc(F)cc(Nc3ccc(I)cc3F)c2C(N)=O)c1 | 
76 | 141 | 4180 | NC(=O)c1c(Nc2ccc(I)cc2F)cc(F)cc1Oc1cccnc1 | 
